These results are taken from paper PMC9454393 (Scientific Reports, 2022).

The subject of one assay is BuChE. The note with it: read-out: IC50 against BuChE, cited from earlier work.
Assay [1] concerns the target T1, AChE (Homo sapiens, UniProt P22303). The settings on record: cited from earlier work.
The target in assay [2] is T1, AChE. The assay is described as follows: biochemical. The note with it: mean ± SD. On the procedure: (§1) A previously described modified protocol of Ellman's spectrophotometric assay in clear flat-bottomed, 96-well plates, was used. […] The absorbance of each well was measured at 415 nm using a microplate reader. […]
Another assay has as its target BChE (Homo sapiens, UniProt P06276). The experiment in a line: BChE inhibition, modified Ellman's spectrophotometric assay. In kind it is biochemical. On the procedure: as §1
On the technique in general: In Ellman's method for cholinesterases, released thiocholine reacts with DTNB.

For assay [3], the target named is T1, AChE. The assay is described as follows: Kinetic study of AChE inhibition (Lineweaver-Burk plots, Ellman's method). In kind it is biochemical. The procedure:
The kinetic study of AChE was carried out at five different concentrations (0–8 µM) of compound 4ad by Ellman's method. […]. The inhibition constant Ki was calculated by the plot of slopes versus the corresponding concentrations of the 4ad.

Where [4] appears, read: Fig. 2 traditional AChE inhibitors.
The mark [5] stands for this setting: Fig. 2 traditional AChE inhibitors, read-out: IC50 against AChE.
Setting [6] is: 50 µM compound, NA = not active.
[7] abbreviates: 50 µM compound, mean ± SD, NA = not active.
[8] abbreviates: Fig. 3, read-out: IC50 against AChE.

Entries after “also recorded” stand apart in the source; their conditions may differ. Read-outs that look alike come from different tables or passages of the source.

BChE, sequence (P06276 29-602): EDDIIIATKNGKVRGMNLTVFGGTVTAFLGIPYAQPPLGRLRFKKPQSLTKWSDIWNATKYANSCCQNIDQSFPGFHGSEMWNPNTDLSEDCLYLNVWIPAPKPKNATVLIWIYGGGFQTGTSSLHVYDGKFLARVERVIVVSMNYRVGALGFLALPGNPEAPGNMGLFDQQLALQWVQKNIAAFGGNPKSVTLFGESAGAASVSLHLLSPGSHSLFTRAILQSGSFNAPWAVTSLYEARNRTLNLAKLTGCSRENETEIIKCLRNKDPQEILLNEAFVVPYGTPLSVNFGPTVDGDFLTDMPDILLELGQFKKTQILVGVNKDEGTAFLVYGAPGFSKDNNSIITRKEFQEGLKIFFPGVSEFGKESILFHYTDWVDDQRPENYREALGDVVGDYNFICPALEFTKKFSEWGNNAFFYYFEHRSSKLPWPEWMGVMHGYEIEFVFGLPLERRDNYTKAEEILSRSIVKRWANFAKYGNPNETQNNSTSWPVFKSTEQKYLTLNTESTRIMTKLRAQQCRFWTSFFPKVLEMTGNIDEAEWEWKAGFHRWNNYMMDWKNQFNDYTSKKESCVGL
T1 sequence (P22303 32-614): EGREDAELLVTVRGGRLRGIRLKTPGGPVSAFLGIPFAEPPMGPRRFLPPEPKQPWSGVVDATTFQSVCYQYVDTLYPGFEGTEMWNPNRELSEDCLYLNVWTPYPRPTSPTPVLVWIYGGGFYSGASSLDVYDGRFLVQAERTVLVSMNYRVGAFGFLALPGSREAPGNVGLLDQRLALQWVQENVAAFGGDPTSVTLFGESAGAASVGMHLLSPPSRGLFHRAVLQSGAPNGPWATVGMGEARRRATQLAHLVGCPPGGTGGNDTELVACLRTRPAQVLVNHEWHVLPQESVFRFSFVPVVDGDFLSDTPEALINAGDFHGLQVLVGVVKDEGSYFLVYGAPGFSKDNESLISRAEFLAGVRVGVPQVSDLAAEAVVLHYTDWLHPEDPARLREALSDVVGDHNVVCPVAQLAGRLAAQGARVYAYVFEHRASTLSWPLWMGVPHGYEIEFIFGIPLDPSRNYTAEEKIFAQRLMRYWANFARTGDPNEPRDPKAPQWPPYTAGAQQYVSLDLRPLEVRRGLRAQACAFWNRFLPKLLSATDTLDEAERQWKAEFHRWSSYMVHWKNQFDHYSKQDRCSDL

`O=C1c2ccccc2C(=O)N1Cc1cc[n+](Cc2ccc(F)cc2)cc1` [B]: the IC50 (as a rule, the concentration needed to halve the response being measured) was 8.71 µM with BuChE (setting [4]) and 0.77 µM on AChE [1] (setting [5]).

As to `c1ccc(C[n+]2ccc(-c3nc4ccccc4s3)cc2)cc1` [C], the values for the IC50 with BuChE (setting [4]) and at AChE [1] (setting [5]) were 0.182 µM and 0.014 µM, respectively.

As to `CSc1c([N+](=O)[O-])c(C(C#N)C(N)=O)c(-c2ccc(Cl)cc2)n1-c1ccc(O)cc1` (stereo not shown) [Compound 4ad, 2-(2-(4-chlorophenyl)-1-(4-hydroxyphenyl)-5-(methylthio)-4-nitro-1H-pyrrol-3-yl)-2-cyanoacetamide], the inhibition (as a rule, the percentage by which the read-out fell short of the control) at 50 µM against AChE [2] (setting [6]) is 89.8 ± 2.36%; at BChE (setting [7]), 20 ± 1.33%. This compound displayed an IC50 against AChE [2] of 2.95 ± 1.31 µM. For the same compound, the “BChE inhibition (in words)” value at BChE was “no significant inhibition; also recorded: inactive”. Further, at AChE [3] (Lineweaver-Burk plots, Km and Vmax reduced with increasing inhibitor concentration), the “type of AChE inhibition” value was “uncompetitive”. At AChE [3] (estimated from plot of Km versus concentrations of 4ad (0-8 µM), substrate acetylthiocholine 0.1-1 mM, read-out: inhibition constant, Ki), the Ki (usually the equilibrium dissociation constant of an inhibitor or competing ligand from its target) is 2.84 µM.

As to `COc1ccc(-c2[nH]c(N)c([N+](=O)[O-])c2C(C#N)C(N)=O)cc1` (stereo not shown) [Compound 4x, 2-(5-amino-2-(4-methoxyphenyl)-4-nitro-1H-pyrrol-3-yl)-2-cyanoacetamide], the inhibition at 50 µM worked out at 47.7 ± 3.91% on AChE [2] (setting [6]) and 19.4 ± 3.91% on BChE (setting [7]).

Consider `COc1cccc2cc(C(=O)/C=C/c3ccc[n+](Cc4ccccc4Br)c3)oc12` [D], for which, at AChE [1] (setting [5]), the IC50 is 0.027 µM.

Take `O=C(NC1CCN(Cc2ccccc2)CC1)c1cc(-c2cccc([N+](=O)[O-])c2)on1` [F]: the half-inhibitory concentration (IC50) is 15.2 µM in the assay with BuChE (setting [4]) and 16.1 µM at AChE [1] (setting [5]).

Turning to `Cc1nc2ccccc2c2cc[nH]c12` [G], the IC50 at AChE [1] (Fig. 3, target per b17 AChE, read-out: IC50) was 4.9 ± 0.9 µM.

As to `CN1CCC2COc3ccccc3C21` (stereo not shown) [H], the IC50 is 7.23 µM in the assay on BuChE (Fig. 3) and 7.75 µM at AChE [1] (setting [8]).

Turning to `CCOC(=O)c1[nH]c(-c2ccccc2)cc1-c1ccccc1` [I], the IC50 on AChE [1] (setting [8]) was 128 µM. The Ki on AChE [1] (Fig. 3, read-out: Ki against AChE) was 104 ± 15.4 µM.

Regarding “Ethyl3-amino-2-(5-(methylthio)-4-nitro-1-phenyl-2-(p-tolyl)-1H-pyrrol-3-yl)-3-oxopropanoate [Compound 4ak]”, the “AChE % inhibition at 50 µM” value at AChE [2] (setting [6]) was 20.79 ± 2.62%. The “BChE % inhibition at 50 µM” value on BChE (setting [7]) came out at 25.56 ± 6.89%.
